# Experimental data taken from patent US9950044B2, “Treatment of pulmonary vascular remodeling with neprilysin” (THE REGENTS OF THE UNIVERSITY OF COLORADO, A BODY CORPORATE, priority 2010, dated 2018).
# T1: NEP activity in wild-type cells (Mus musculus, UniProt Q61391)
# T1 construct: endogenous in cells; host or cells: wild-type (NEP+/+) mouse PASMCs
# T1 sequence (Q61391 1-750): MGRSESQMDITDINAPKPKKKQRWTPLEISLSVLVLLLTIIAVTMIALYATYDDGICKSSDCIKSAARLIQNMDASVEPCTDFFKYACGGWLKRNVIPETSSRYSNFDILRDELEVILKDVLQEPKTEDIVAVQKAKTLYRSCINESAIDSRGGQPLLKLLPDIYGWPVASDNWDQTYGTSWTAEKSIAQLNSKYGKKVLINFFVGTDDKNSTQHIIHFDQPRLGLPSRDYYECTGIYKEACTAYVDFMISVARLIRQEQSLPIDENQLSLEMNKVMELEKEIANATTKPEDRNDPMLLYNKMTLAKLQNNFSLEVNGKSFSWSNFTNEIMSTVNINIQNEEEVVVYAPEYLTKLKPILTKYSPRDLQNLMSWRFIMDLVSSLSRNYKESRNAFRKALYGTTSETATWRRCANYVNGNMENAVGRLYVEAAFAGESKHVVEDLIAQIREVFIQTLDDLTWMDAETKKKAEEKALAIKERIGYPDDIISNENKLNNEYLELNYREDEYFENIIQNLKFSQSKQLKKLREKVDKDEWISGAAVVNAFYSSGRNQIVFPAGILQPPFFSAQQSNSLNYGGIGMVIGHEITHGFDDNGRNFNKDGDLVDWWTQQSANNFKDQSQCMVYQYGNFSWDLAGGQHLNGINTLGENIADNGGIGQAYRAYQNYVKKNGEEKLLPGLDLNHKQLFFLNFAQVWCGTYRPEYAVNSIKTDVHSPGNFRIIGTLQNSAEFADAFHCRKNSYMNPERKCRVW
# Legend:
# [1] = test system: NEP mRNA in human PA SMCs; test: NEP mRNA levels in human PA SMCs (qRT-PCR); type: cell-based
# Experimental: (§1) PA SMCs were isolated from the main PA of ‘normal’ human tissue donors (Clonetics®, Basel, Switzerland, α-SM actin positive, Factor VIII negative). Passages 6-10 were maintained in SmBM® (5% FBS), at 37° C., and used for experimentation. […] The antioxidants Tiron (2.5 mM; Sigma) (Taiwo, 2008), MnTMPyp (an SOD/catalase mimetic (Day et al., 1997), 20 μM; Calbiochem), or polyethylene glycol (PEG) conjugated catalase Beckman et al., 1988) (40 units/ml; Sigma), or the protein degradation inhibitors (Folimycin Huss and Wieczorek, 2009) for lysosomes, 50 nM; Clastolactacystin β-lactone (Dick et al., 1996) for proteasomes, 1 μM; Calbiochem) were added 0.5 or 2 h, respectively, before exposures.
# [2] = target: NEP activity in ‘Control’ human lung homogenates (Homo sapiens, UniProt P08473); test: biochemical; details: read-out: inhibition of NEP activity in ‘Control’ crude lung homogenates
# Experimental: (§2) Lung samples ([…]) or PA SMCs were homogenized in 0.5 ml 20 mM MES, pH 6.5, containing protease inhibitors, and for PA SMCs, 0.5% CHAPS. After centrifugation (10,000×g, 10 min), supernatant was stored at −80° C. NEP activity was measured as described (Dempsey et al., 2009). DPPIV activity was measured by DPPIV-Glo Protease Assay (Promega). Western analyses (Dempsey et al., 2009) with anti-human NEP (56C6, Neomarkers) were assessed by densitometry.
# recombinant human NEP = recombinant human NEP (Homo sapiens, UniProt P08473); test: biochemical; details: read-out: inhibition of residual rNEP activity
# Experimental: as §2
# NEP in human PA SMCs = target: T2, NEP in human PA SMCs (Homo sapiens, UniProt P08473); test: NEP catalytic activity in human PA SMCs (fluorometric); type: cell-based; details: for prevention of H2O2-induced decreases in PA SMC NEP activity: antioxidant added 0.5 h before 4 h H2O2 (100 μM), MnTMPyp 20 μM, PEG-catalase 40 units/ml
# T2 construct: host or cells: primary human PA SMCs, passages 6-10
# Experimental: as §2, §1
# [3] = target: T1, NEP activity in wild-type cells; details: phosphoramidon 10 μmole/liter; cited from earlier work
# NEP+/+ PASMCs [4] = test: Migration of NEP+/+ PASMCs (scratch assay); type: cell-based, mouse; details: wild-type PASMCs, 48 h treatment; phosphoramidon 10 μMole/L or NEP siRNA 10 nMole/L; serum 0.2%, PDGF 10 ng/ml
# Experimental: (§3) Mice were anesthetized with sodium pentobarbital (100 mg/kg i.p.). Proximal medial tissue was micro dissected from individual age matched 13-17 wk old NEP+/+ and NEP−/− littermate mice. Tissue was digested with […] and cells were grown in DMEM-F-12 medium containing 10% fetal bovine serum (FBS) as described (Petkov et al., 2003). PASMCs were characterized by light microscopic appearance, growth characteristics, and stained for α-SM-actin, SM-myosin, Factor VIII and LDL between passage 3 and 6. PASMCs were used for studies between passage 6 and 13.
# Briefly, PASMCs were grown to confluence on 60 mm plates (Hamidi et al., 2008). The cells were serum starved in DMEM-F-12 medium with 0.2% serum for 24 h, and scraped with a sterile P200 pipette tip to generate a cell-free zone. PASMCs were then rinsed with medium and incubated with either 0.2% serum or 10 ng/ml PDGF-BB and cells that migrated into the scratch were visualized by light microscopic imaging. Quantitation of migration was done by counting the number of PASMCs in a 5 cm^2 area of the scratch. […]
# Migration was determined by a modified Boyden chamber assay using a polycarbonate filter with […] pore diameter obtained from Neuroprobe (Gaithersburg, Md.) (Said et al., 2007). […] The membranes were examined under a microscope and the cells that migrated to the lower surface were counted (five random 20× fields/well).
# NEP+/+ PASMCs [5] = test: Proliferation of NEP+/+ PASMCs (3H-thymidine incorporation); type: cell-based, mouse; details: wild-type PASMCs, 48 h treatment; phosphoramidon 10 μMole/L or NEP siRNA 10 nMole/L; serum 0.2%, PDGF 10 ng/ml
# Experimental: as §3
# The effects of growth factors and neuropeptides on DNA synthesis were evaluated as previously reported (Petkov et al., 2003). SMCs were grown in DMEM containing 10% FBS in 24-well plates for about 16 hr. PASMCs were then incubated in DMEM supplemented with 0.2% FBS for 24 hr to make them quiescent. […] [^3H]-thymidine obtained from Perkin Elmer (Waltham, Mass.) at 1 mCi/ml was added for the last 6 hr. After labeling was completed, the cells were washed twice with ice-cold PBS, and proteins were precipitated with 5% perchloric acid. The precipitate was dissolved with 0.5N NaOH and SDS and radioactivity was measured using a liquid scintillation counter made by Beckman Coulter, Inc. (Brea, Calif.).
# [6] = test system: SM-contractile proteins (α-SM-actin, SM-myosin, SM-22, calponin); test: SM-contractile protein expression in PASMCs (Western blotting); type: cell-based, mouse
# Experimental: Cell lysates were prepared in immunoprecipitation buffer (20 mM Tris HCl (pH 7.5), 150 mM NaCl, 1 mM EDTA, 10% glycerol, 1% Nonidet P-40; 1 mM dithiothreitol, 10 mM NaF, 1 mM sodium orthovanadate, 10 μg/ml leupeptin, 10 μg/ml aprotinin, 10 μg/ml pepstatin A, and 1 mM phenylmethylsulfonyl fluoride) (Petkov et al., 2003). Cells were scraped from the plates, lysed on ice for 30 min. Cellular debris was eliminated by centrifugation for 10 min at 10,000 rpm. The protein concentration was determined by the BCA protein Assay®. Proteins (20-100 μg) were separated on SDS-PAGE and transferred to nitrocellulose membranes obtained from GE Healthcare, (Piscataway, N.J.). Membranes were blocked in PBS containing 0.1% Tween-20 and 1% BSA for 1 h at room temperature. Membranes were incubated with primary antibodies overnight at 4° C., and with secondary antibodies for 1 h at room temperature. All antibodies were diluted in PBS containing 0.1% Tween 20 and 1% BSA, and ECL reagent obtained from Perkin Elmer (Waltham, Mass.) was used for immunodetection. GAPDH was used as a loading control.
# A Bio-Rad gel scanner and densitometer (Gel DocXR with Quantity 1 program) were used to assess the intensity of the bands obtained by Western blots. […] The arbitrary units obtained were normalized to GAPDH and the ratios for NEP+/+ to NEP−/− PASMCs were calculated. […]
# NEP KO PA SMCs = details: added to the cell culture media or lentiviral transduction; cited from earlier work
# T2 sequence (P08473 whole entry): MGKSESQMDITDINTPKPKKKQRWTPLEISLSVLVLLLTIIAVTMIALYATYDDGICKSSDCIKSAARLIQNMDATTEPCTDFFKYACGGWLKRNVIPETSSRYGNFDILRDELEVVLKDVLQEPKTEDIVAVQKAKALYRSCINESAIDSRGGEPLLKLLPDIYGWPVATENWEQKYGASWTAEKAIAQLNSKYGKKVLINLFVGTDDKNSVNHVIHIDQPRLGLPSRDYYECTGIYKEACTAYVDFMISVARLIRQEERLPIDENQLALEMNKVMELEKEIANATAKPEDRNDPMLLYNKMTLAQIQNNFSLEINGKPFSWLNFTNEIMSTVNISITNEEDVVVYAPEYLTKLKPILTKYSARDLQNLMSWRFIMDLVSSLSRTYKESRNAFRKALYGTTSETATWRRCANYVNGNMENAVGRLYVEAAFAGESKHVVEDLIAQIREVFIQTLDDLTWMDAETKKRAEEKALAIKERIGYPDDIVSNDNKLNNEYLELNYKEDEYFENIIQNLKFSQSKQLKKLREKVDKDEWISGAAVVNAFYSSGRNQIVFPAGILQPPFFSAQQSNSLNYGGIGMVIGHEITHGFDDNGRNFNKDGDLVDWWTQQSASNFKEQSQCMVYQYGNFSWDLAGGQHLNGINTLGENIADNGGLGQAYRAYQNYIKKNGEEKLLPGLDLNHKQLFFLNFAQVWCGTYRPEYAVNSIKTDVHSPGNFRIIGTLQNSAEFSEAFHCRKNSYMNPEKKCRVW
# recombinant human NEP, sequence (P08473 whole entry): as above
# NEP activity in ‘Control’ human lung homogenates, sequence (P08473 whole entry): as above
molecule,measurement,setting,value
"OO [H2O2, hydrogen peroxide]",effect on NEP mRNA expression,"[1]; 100 μM H2O2, 48 h",did not significantly decrease
same,transient decrease in NEP mRNA,"[1]; after 4 h exposure to H2O2, preliminary experiments",40%
same,inhibition at 100 µM,[2],38%
same,inhibition at 100 µM,recombinant human NEP,68%
same,"NEP activity after exposure, without Tiron","NEP in human PA SMCs; 4 h exposure, CSE 5 μg/ml, H2O2 100 μM",significantly decreased
O=S(=O)(O)c1cc(O)c(O)c(S(=O)(=O)O)c1 [Tiron],"prevention of decreases in NEP activity due to CSE, hypoxia or H2O2","NEP in human PA SMCs; Tiron 2.5 mM, 0.5 h before and throughout 4 h exposure",prevented
same,NEP activity under normoxia with Tiron vs normoxia alone,"NEP in human PA SMCs; Tiron 2.5 mM, normoxia",did not differ significantly
same,prevention of H2O2-induced decreases in PA SMC NEP activity,NEP in human PA SMCs; Tiron 2.5 mM,prevented
CC(C)C[C@H](NP(=O)(O)O[C@@H]1O[C@@H](C)[C@H](O)[C@@H](O)[C@H]1O)C(=O)N[C@@H](Cc1c[nH]c2ccccc12)C(=O)O [phosphoramidon],inhibition of NEP activity in wild-type cells,[3],completely inhibits
same,migration in response to serum and PDGF,NEP+/+ PASMCs [4],increased
same,proliferation in response to serum and PDGF,NEP+/+ PASMCs [5],increased
same,expression of SM-contractile proteins in NEP+/+ cells,[6]; phosphoramidon 10 μMole/L or NEP siRNA 10 nMole/L,decrease
MnTMPyp,prevention of H2O2-induced decreases in PA SMC NEP activity,NEP in human PA SMCs; Tiron 2.5 mM,prevented
"PEG-catalase: polyethylene glycol (PEG) conjugated catalase, antioxidant (conjugate, UniProt P00432 2-527, looked up, PEG conjugated, polyethylene glycol (PEG) conjugated catalase, antioxidant) Catalase: ADNRDPASDQMKHWKEQRAAQKPDVLTTGGGNPVGDKLNSLTVGPRGPLLVQDVVFTDEMAHFDRERIPERVVHAKGAGAFGYFEVTHDITRYSKAKVFEHIGKRTPIAVRFSTVAGESGSADTVRDPRGFAVKFYTEDGNWDLVGNNTPIFFIRDALLFPSFIHSQKRNPQTHLKDPDMVWDFWSLRPESLHQVSFLFSDRGIPDGHRHMNGYGSHTFKLVNANGEAVYCKFHYKTDQGIKNLSVEDAARLAHEDPDYGLRDLFNAIATGNYPSWTLYIQVMTFSEAEIFPFNPFDLTKVWPHGDYPLIPVGKLVLNRNPVNYFAEVEQLAFDPSNMPPGIEPSPDKMLQGRLFAYPDTHRHRLGPNYLQIPVNCPYRARVANYQRDGPMCMMDNQGGAPNYYPNSFSAPEHQPSALEHRTHFSGDVQRFNSANDDNVTQVRTFYLKVLNEEQRKRLCENIAGHLKDAQLFIQKKAVKNFSDVHPEYGSRIQALLDKYNEEKPKNAVHTYVQHGSHLSAREKANL",prevention of H2O2-induced decreases in PA SMC NEP activity,NEP in human PA SMCs; Tiron 2.5 mM,prevented
"rNEP: recombinant human neprilysin protein (protein, UniProt P08473 2-750, looked up) Neprilysin: GKSESQMDITDINTPKPKKKQRWTPLEISLSVLVLLLTIIAVTMIALYATYDDGICKSSDCIKSAARLIQNMDATTEPCTDFFKYACGGWLKRNVIPETSSRYGNFDILRDELEVVLKDVLQEPKTEDIVAVQKAKALYRSCINESAIDSRGGEPLLKLLPDIYGWPVATENWEQKYGASWTAEKAIAQLNSKYGKKVLINLFVGTDDKNSVNHVIHIDQPRLGLPSRDYYECTGIYKEACTAYVDFMISVARLIRQEERLPIDENQLALEMNKVMELEKEIANATAKPEDRNDPMLLYNKMTLAQIQNNFSLEINGKPFSWLNFTNEIMSTVNISITNEEDVVVYAPEYLTKLKPILTKYSARDLQNLMSWRFIMDLVSSLSRTYKESRNAFRKALYGTTSETATWRRCANYVNGNMENAVGRLYVEAAFAGESKHVVEDLIAQIREVFIQTLDDLTWMDAETKKRAEEKALAIKERIGYPDDIVSNDNKLNNEYLELNYKEDEYFENIIQNLKFSQSKQLKKLREKVDKDEWISGAAVVNAFYSSGRNQIVFPAGILQPPFFSAQQSNSLNYGGIGMVIGHEITHGFDDNGRNFNKDGDLVDWWTQQSASNFKEQSQCMVYQYGNFSWDLAGGQHLNGINTLGENIADNGGLGQAYRAYQNYIKKNGEEKLLPGLDLNHKQLFFLNFAQVWCGTYRPEYAVNSIKTDVHSPGNFRIIGTLQNSAEFSEAFHCRKNSYMNPEKKCRVW",proliferation of the NEP KO PA SMCs,NEP KO PA SMCs,dose-dependent inhibition
same,"levels of SM-markers (α-SM-actin, SM-22, calponin) in null PASMCs","[6]; NEP−/− PASMC, lentiviral human NEP construct or rNEP 10 μg/ml",restored
